According to ChEMBL document CHEMBL1122249, “Synthesis of hypoxanthine, guanine, and 6-thiopurine nucleosides of 6-deoxy-D-allofuranose” (1983):

Tests used:
[1] = test system: L1210; assay: Median survival time of inhibitory activity against L1210 tumor cells in mouse at the dose of 100 mg/kg; assay type: functional
[2] = test system: Mus musculus; assay: Survivors after the treatment with 25 mg/kg dose for 5 days in 6 mice; assay type: functional
[3] = test system: Mus musculus; assay: Survivors after the treatment with 12.5 mg/kg dose for 5 days in 6 mice; assay type: functional
[4] = test system: Mus musculus; assay: Average weight change in mouse after the treatment with 12.5 mg/kg dose of the compound; assay type: functional
[5] = test system: Mus musculus; assay: Survivors after the treatment with 100 mg/kg dose for 5 days in 6 mice; assay type: functional
[6] = test system: Mus musculus; assay: Survivors after the treatment with 50 mg/kg dose for 5 days in 6 mice; assay type: functional
[7] = test system: Mus musculus; assay: Average weight change in mouse after the treatment with 100 mg/kg dose of the compound; assay type: functional
[8] = test system: Mus musculus; assay: Average weight change in mouse after the treatment with 200 mg/kg dose of the compound; assay type: functional
[9] = test system: L1210; assay: Median survival time of inhibitory activity against L1210 tumor cells in mice at the dose of 200 mg/kg; assay type: functional, Mus musculus
[10] = test system: Mus musculus; assay: Average weight change in mouse after the treatment with 25 mg/kg dose of the compound; assay type: functional
[11] = test system: Mus musculus; assay: Survivors after the treatment with 200 mg/kg dose for 5 days in 6 mice; assay type: functional
[12] = test system: L1210; assay: Median survival time of inhibitory activity against L1210 tumor cells in mouse at the dose of 25 mg/kg; assay type: functional
[13] = test system: Mus musculus; assay: Average weight change in mouse after the treatment with 50 mg/kg dose of the compound; assay type: functional
[14] = test system: L1210; assay: Median survival time of inhibitory activity against L1210 tumor cells in mouse at the dose of 12.5 mg/kg; assay type: functional
[15] = test system: L1210; assay: Median survival time of inhibitory activity against L1210 tumor cells in mouse at the dose of 50 mg/kg; assay type: functional

Structure (SMILES): CC(O)[C@H]1O[C@@H](n2cnc3c(S)ncnc32)[C@H](O)[C@@H]1O (stereo not given in full)
- T/C [1]: 146%
- Survivors [2]: 6
- Survivors [3]: 6
- Average weight change [4]: -1
- Survivors [5]: 6
- Survivors [6]: 6
- Average weight change [7]: -3.6
- Average weight change [8]: -4.4
- T/C [9]: 148%
- Average weight change [10]: -1.4
- Survivors [11]: 6
- T/C [12]: 116%
- Average weight change [13]: -1.7
- T/C [14]: 107%
- T/C [15]: 142%
